Tests used:
Type in all cases: functional
Parameters in all cases: scale not given: the % may be the effect or the level left
[1] = Antioxidant activity assessed as inhibition of hydroxyl radical production at 0.5% concentration%
[2] = Antioxidant activity assessed as inhibition of hydroxyl radical production after heat processing
[3] = Antioxidant activity assessed as inhibition of hydroxyl radical production at 0.05% concentration%

With CC(C)=CCC[C@](C)(O[C@@H]1O[C@H](CO[C@@H]2O[C@H](CO)[C@@H](O)[C@H](O)[C@H]2O)[C@@H](O)[C@H](O)[C@H]1O)[C@H]1CC[C@]2(C)[C@@H]1[C@H](O)C[C@@H]1[C@@]3(C)CC[C@H](O[C@@H]4O[C@H](CO)[C@@H](O)[C@H](O)[C@H]4O[C@@H]4O[C@H](CO)[C@@H](O)[C@H](O)[C@H]4O)C(C)(C)[C@@H]3CC[C@]12C the Activity [1] was 24%, the Activity [2] was 42% and the Activity [3] was 47%.
